Tests used:
[1] = system: Fusarium graminearum and Fusarium asiaticum; assay: organism not typed; format: cell-based; conditions: tebuconazole 0.078 μg/mL; sensitive and fungicide-resistant strains
Fusarium graminearum = assay: microbe, parasite or virus in culture; format: cell-based

Q: What does the source list for Tebuconazole?
A: inhibitory effect on hyphal growth [1]: ~50%; Median Effective Concentration (EC50) for Growth Inhibition (Fusarium graminearum; F.g carbendazim-resistant strains): 0.101 µg/mL; Median Effective Concentration (EC50) for Growth Inhibition (Fusarium graminearum; F.g phenamacril-resistant strains): 0.085 µg/mL

— US10588316B2 (priority 2015, dated 2020)
